Reference: patent publication US9045525B2, “Amyloid β-protein-specific production-inhibiting polypeptide” (THE DOSHISHA, priority 2012, dated 2015)
“Also recorded” adds a separate entry of the source.

What was measured:
[1] = tested on: CHO-K1 cells (7WD10 cells) that stably expressed APP protein; test: Aβ protein production inhibition experiment in 7WD10 cells (sAPPβ, βCTF, Aβ); assay type: cell-based; details: polypeptide 25 μM and 50 μM; cells also expressing st6gal
Experimental: (§1) An experiment was conducted wherein #1, #2, and #4 polypeptides were reacted with CHO-K1 cells (7WD10 cells) that stably expressed APP protein and transiently expressed Notch to confirm the production of Aβ protein and cleavage of Notch protein.

[2] = tested on: sialyltransferase (st6gal), substrate of β-secretase, in 7WD10 cells; test: Cleavage of sialyltransferase (st6gal) in 7WD10 cells; assay type: cell-based; details: polypeptide 25 μM and 50 μM
Experimental: An experiment was conducted in the same manner as Experimental Example 6 except that only S4 polypeptide was used as the polypeptide; the S4 polypeptide was added to have the final concentrations of 25 μM and 50 μM; the cell used in this experiment was CHO-K1 cell (7WD10 cell) that expressed APP protein and transiently expressed Notch and sialyltransferase (st6gal), which is the substrate of β-secretase; and confirmation of cleavage by sialyltransferase was conducted in addition to the confirmation of the production of Aβ protein and cleavage of Notch protein.

[3] = biological target: γ-secretase against βCTF (C99-FLAG) (Homo sapiens, UniProt P05067); test: γ-Secretase activity inhibition experiment in vitro, C99-FLAG substrate; assay type: biochemical; details: polypeptide 1, 5, 10, 20, and 50 μM
Sequence of γ-secretase against βCTF (C99-FLAG) (P05067 with tags, fused parts or gaps): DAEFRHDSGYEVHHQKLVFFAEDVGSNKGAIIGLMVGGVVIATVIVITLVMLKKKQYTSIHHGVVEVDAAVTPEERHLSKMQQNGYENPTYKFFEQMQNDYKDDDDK
Experimental: (§2) A polypeptide having βCTF (C99-FLAG: SEQ ID NO: 16) and mouse-derived Notch protein having a FLAG peptide at the C-terminal side (modification of NCBI Accession No. Q01705.2; SEQ ID NO: 17; hereunder referred to as “Notch”) shown in FIG. 2(A) were each made into a solution having a final concentration of 50 nM.
(§3) To these solutions, 9-7 polypeptide, 6-5 polypeptide, #1 polypeptide, #2 polypeptide, #3 polypeptide, and #4 polypeptide were added in such a manner that the final concentrations were 50 μM, followed by reacting with 50 μL of CHAPSO-solubilized membrane fraction (γ-secretase-containing fraction) for 4 hours. The reaction temperature was 37° C. As a negative control experiment, DMSO was used in place of the six types of polypeptides described above.
(§4) Each sample after completion of the reaction was measured in the following manner. As shown in FIG. 2(A), a sample using C99-FLAG was subjected to Western blotting using a monoclonal antibody (82E-1) that specifically recognizes the N terminal of C99-FLAG, and the amount of Aβ40 protein produced by the cleavarage by γ-secretase was measured. In contrast, the reaction sample using Notch-FLAG was subjected to Western blotting using an anti-FLAG monoclonal antibody, and the amount of NICD produced to the separete by γ-secretase was also measured. FIG. 2(B) and FIG. 2(C) show the results.
(§5) An experiment was conducted in the same manner as in Experimental Example 1 described above, except that only #1 polypeptide was used and the amount of #1 polypeptide was selected so that the final concentrations were 0.5, 1, 5, 10, 20, and 50 μM.
(§6) An experiment was conducted in the same manner as in Experimental Example 1 described above, except that S4 polypeptide was used as the polypeptide, and each addition amount was set in such a manner that the final concentrations were 1, 5, 10, 20, and 50 μM. In this Experimental Example, #4 polypeptide was added in such a manner that the final result was 50 μM.

[4] = tested on: Notch transiently expressed in CHO-K1 cells (7WD10 cells); test: Cleavage of Notch protein (NICD) in 7WD10 cells; assay type: cell-based; details: polypeptide 25 μM and 50 μM; cells also expressing st6gal
Experimental: as §1

[5] = biological target: γ-secretase against Notch (Mus musculus, UniProt Q01705, V1997L); test: γ-Secretase activity inhibition experiment in vitro, Notch-FLAG substrate; assay type: biochemical; details: polypeptide 1, 5, 10, 20, and 50 μM
Sequence of γ-secretase against Notch (Q01705 with tags, fused parts or gaps V1997L): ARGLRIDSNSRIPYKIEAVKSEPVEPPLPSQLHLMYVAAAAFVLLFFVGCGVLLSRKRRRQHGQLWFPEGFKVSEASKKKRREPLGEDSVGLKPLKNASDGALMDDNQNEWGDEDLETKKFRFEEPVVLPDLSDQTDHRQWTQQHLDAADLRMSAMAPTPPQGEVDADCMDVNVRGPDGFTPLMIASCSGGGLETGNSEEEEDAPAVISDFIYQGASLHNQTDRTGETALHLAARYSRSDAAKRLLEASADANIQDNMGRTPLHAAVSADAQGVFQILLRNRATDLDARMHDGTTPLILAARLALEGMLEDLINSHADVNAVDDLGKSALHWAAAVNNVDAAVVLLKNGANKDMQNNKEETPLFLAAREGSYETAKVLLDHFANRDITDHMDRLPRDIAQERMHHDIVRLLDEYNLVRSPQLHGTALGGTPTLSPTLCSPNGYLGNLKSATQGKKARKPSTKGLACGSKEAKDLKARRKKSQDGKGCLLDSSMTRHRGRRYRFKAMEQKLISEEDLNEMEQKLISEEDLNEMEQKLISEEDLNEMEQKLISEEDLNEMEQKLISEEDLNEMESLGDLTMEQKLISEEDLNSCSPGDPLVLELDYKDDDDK
Experimental: as §2, §3, §4, §5, §6

[6] = biological target: β-secretase against APP (APP-EQ-FLAG) (Homo sapiens, UniProt P05067); test: β-Secretase activity inhibition experiment in vitro, APP-EQ-FLAG substrate; assay type: biochemical; details: polypeptide 1, 5, 10, 20, 50, and 100 μM
Sequence of β-secretase against APP (APP-EQ-FLAG) (P05067 with tags, fused parts or gaps): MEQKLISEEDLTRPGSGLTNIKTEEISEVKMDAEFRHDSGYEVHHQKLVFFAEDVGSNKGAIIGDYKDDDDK
Experimental: A solution containing the polypeptide having APP (APP-EQ-FLAG: SEQ ID NO: 18) as shown in FIG. 5(A) was prepared in such a manner that its final concentration was 50 nM.
To this solution, 9-7 polypeptide, 6-5 polypeptide, #1 polypeptide, #2 polypeptide, #3 polypeptide, #4 polypeptide, #5 polypeptide, #6 polypeptide, #7 polypeptide, #8 polypeptide, #9 polypeptide, and #10 polypeptide were added in such a manner that each solution had the final concentration of 50 μM, followed by reacting with 50 μL β-secretase (0.02 U/μL) for 4 hours. The reaction temperature was 37° C. As a negative control experiment, DMSO was used in place of the 12 types of polypeptides mentioned above.
After completion of the reaction, each sample was subjected to Western blotting using a monoclonal antibody (82E-1) that specifically recognizes the N terminal of APP-EQ-FLAG as shown in FIG. 5(A). Thereafter, the amount of Aβ33-FLAG protein separated by β-secretase was measured.
An experiment was conducted in the same manner as Experimental Example 4 described above except that S4 and #4 polypeptides were used as the polypeptide and the amounts of these polypeptides added were adjusted so that the final concentrations were 1, 5, 10, 20, 50, and 100 μM.

Sequence: FGBTWDYWVYR [S4]
- Aβ protein (intracellular Aβ) in the cell lysate [1]: decreased
- amount of Aβ protein (released Aβ) in the cell culture medium [1]: reduced
- sAPPβ production amount in the cell culture medium [1]: reduced
- st6gal production amount in the cell culture medium [2]: not decreased
- cleavage activity of γ-secretase against βCTF [3]: inhibits more intensely in a concentration-dependent manner the cleavage activity of γ-secretase against βCTF
- amount of NICD in the cell lysate [4]: did not decrease
- cleavage activity of γ-secretase against Notch (NICD) [5]: not inhibited
- cleavage activity of β-secretase against APP [6]: inhibited the cleavage activity of β-secretase against APP, although inferior to #4 polypeptide; also recorded: inhibited the cleavage activity of β-secretase against APP in a concentration-dependent manner
